Results taken from patent US8217071B2, “Use of inhibitors of the degradation of p27, in particular Argyrin and derivatives thereof, for the treatment of proliferative diseases” (Helmholtz Zentrum für Infektionsforschung GmbH, priority 2007, dated 2012).
Converted amounts (≈) assume the structure as drawn. Numbered stars: 1 amine (or outer) side, 2 acyl side, 3 side chain; on linkers, the order of the positions; unused ones are H or OH. Square brackets hold non-standard residues; d marks the D form. Peptide text beside a SMILES is read from it. dAla(ψthiazole) = C[C@@H](N[*:1])c1nc(C(=O)[*:2])cs1; Trp(4-OMe) = COc1cccc2[nH]cc(C[C@H](N)C(=O)O)c12; Dha = C=C(N)C(=O)O; Sar = CNCC(=O)O

Tests used:
Format in all cases: cell-based, human
p27^kip1 = p27^kip1 half life in cycloheximide treated cells; settings: HeLa and SW480 cells, cycloheximide 25 μg/mL
Experimental: The inventors therefore conclude that Argyrin A prevents the degradation of p27 due to its proteasome inhibitory activity in vivo and induces apoptosis or G1 arrest in a variety of different tumour cell lines.
The expression levels of p27^kip1 were determined at the indicated timepoints by western blotting and normalized against actin expression which was used as an internal control.

SW-480 (colon cancer) = assay: MIC (visual), serial dilution, SW-480; settings: minimal concentration of a serial dilution exhibiting a visual effect
From the text: (§1) The following table summarizes the effects of argyrin-derivatives A to H on two cancer cell lines, H15 (cervix carcinoma) and SW-480 (colon cancer). In order to test the efficacy, a p27-GFP-clone was used.

[1] = tested on: p27-GFP (clone H15GFP-p27, HeLa-cell line; cervix-carcinoma); assay: GFP-fluorescence per FACS in clone H15GFP-p27; settings: GFP-fluorescence per FACS after 24 h incubation, 500 ng/ml
From the text: Human p27cDNA (in plasmid vector CS2+) was digested with EcoR1 and BamH1, and the resulting fragment was ligated after gel purification into the vector pEGFP-N1 (Clontech) that was cut with the same restriction enzymes. Thus, a […] fusion with the GFP as contained in the pEGFP-vector was generated. The plasmid was then transfected into Hela cells, and, following selection of the cells with kanamycin, cellular clones were isolated which had the plasmid integrated stably into their chromosome. The expression of the p27EGFP proteins was confirmed using Western blots and immune precipitations for both p27 and GFP.
as §1

C=C1NC(=O)[C@@H](C)NC(=O)CNC(=O)[C@H](Cc2c[nH]c3cccc(OC)c23)NC(=O)[C@H](Cc2c[nH]c3ccccc23)NC(=O)c2csc(n2)[C@@H](C)NC(=O)CN(C)C1=O [Argyrin A] (cyclo(W[Trp(4-OMe)]G[dA][Dha][Sar][dAla(ψthiazole)]))
p27 turnover (p27^kip1): complete block
MIC (visual) SW-480 (SW-480 (colon cancer)): 4 µg/mL (≈ 4.85 µM)
Mean of FSC-H (Log) H15 p27-GFP-clone [1]: 8.52
